Reference: US9102752B2, “Peptide vaccine for prevention and immunotherapy of dementia of the Alzheimer's type” (United Biomedical, Inc., priority 2013, dated 2015)

Assays:
[1] = tested on: anti-Aβ antibodies in sera from vaccinated baboons; assay: Epitope mapping, 10-mer peptide-based ELISA with sera from vaccinated baboons; details: peptide as plate coating
Protocol: Fine specificity analyses of anti-Aβ antibodies in immunized hosts or vaccines were determined by epitope mapping.
These nested peptides were used individually to coat microtiter wells as solid-phase immunoadsorbents for ELISA tests. The positive control ELISA plate was coated with Aβ1-28. They were tested for antibody binding with the sera from the four immunized baboons, from weeks 0, 10, 84 and 111. Baboon sera were serially diluted and assayed on plates coated with a 10-mer peptide at 5 ug/mL.

baboon anti-Aβ antibody = assay: Epitope mapping by competitive inhibition ELISA with hyperimmune baboon sera; assay type: binding, baboons
[2] = peptide concentration 0.5 μg/mL

Row | Substance | ELISA Titer titers (Log10) ([1]; 0 weeks post immunization) | ELISA Titer titers (Log10) ([1]; 10 weeks post immunization) | ELISA Titer titers (Log10) ([1]; 84 weeks post immunization) | ELISA Titer titers (Log10) ([1]; 111 weeks post immunization) | Percent (%) Inhibition ELISA after peptide pre-absorption of sera (baboon anti-Aβ antibody; [2]) [%] | Percent (%) Inhibition ELISA after peptide pre-absorption of sera (baboon anti-Aβ antibody; peptide concentration 1 μg/mL) [%] | Percent (%) Inhibition ELISA after peptide pre-absorption of sera (baboon anti-Aβ antibody; peptide concentration 2 μg/mL) [%] | Percent (%) Inhibition ELISA after peptide pre-absorption of sera (baboon anti-Aβ antibody; peptide concentration 8 μg/mL) [%] | Percent (%) Inhibition ELISA after peptide pre-absorption of sera (baboon anti-Aβ antibody; peptide concentration 32 μg/mL) [%]
1 | 28 (HHQKLVFFAE) [Peptide 28] | 0.19 | 0.22 | 0.13 | 0.12 |  |  |  |  | 
2 | 29 (HQKLVFFAED) [Peptide 29] | 0.18 | 0.21 | 0.13 | 0.13 |  |  |  |  | 
3 | SEQ ID NO: 16: MDAEF RHDSG (MDAEFRHDSG; PEPTIDE (1)..(10) Abeta -1-9 or APP 770(M671-G680); listed as Homo sapiens) [Aβ-1-9] |  |  |  |  | 9 | 4 | 8 | 17 | 39
4 | SEQ ID NO: 17: AEFRH DSGYE (AEFRHDSGYE; PEPTIDE (1)..(10) Abeta 2-11 or APP 770(A673-E682); listed as Homo sapiens) [Aβ2-11] |  |  |  |  | 0 | 0 | 0 | 6 | 19
5 | SEQ ID NO: 18: EFRHD SGYEV (EFRHDSGYEV; PEPTIDE (1)..(10) Abeta 3-12 or APP 770(E674-V683); listed as Homo sapiens) [Aβ3-12] |  |  |  |  | 1 | 0 | 0 | 0 | 3
